# Read-outs that look alike come from different tables or passages of the source.
# How the values were obtained:
# [1] = tested on: root-knot nematode, Meloidogyne javanica; type: in vivo
# Experimental: In a double blind study, concentrations of the subject aldehyde compounds were tested for activity against root-knot nematode, Meloidogyne javanica. Nematodes were put in direct contact with the chemical and at 24 hour intervals, mortality was assessed both visually and by probing. Meloidogyne javanica were produced using hydroponics. The nematodes were harvested and used within 24 hours.
# Approximately 100 nematodes in 0.07 mls of water were pipetted into a syracuse dish (Fisher) and 1 ml of test formulation was immediately pipetted into each dish. The dishes were then placed into plastic bags to retain moisture and prevent evaporation. Four syracuse dishes were used for each solution test formulation. […] Moving nematodes were counted as living.
# [2] = tested on: Fusarium subglutinans f. sp. pini; test: radial growth on amended potato dextrose agar; type: cell-based; conditions: five days at 18° C
# Experimental: A double-blind bioassay was undertaken using cinnamic aldehyde in various concentrations and formulations. The bioassay was based on inhibition of radial growth of Fusarium subglutinans f. sp. pini. Eight ml of formulation (concentration unknown) was pipetted into 200 ml of molten 2% potato dextrose agar (PDA) and the mixture was dispersed into five plastic petri dishes (25 ml dish). Each of four plates was inoculated at the center with an agar plug transferred from a growing PDA culture of Fusarium subglutinans f. sp. pini (isolate SL-1, UCB), while the fifth plate was left noninoculated as a control. These steps were repeated for each formulation of the cinnamic aldehyde. As a positive control, four PDA plates amended with 5 ppm benomyl were inoculated. as described; the negative control was four unamended PDA plates that were inoculated with F. subglutinans. All inoculated and non-inoculated plates were incubated at 18° C. for five days, after which colony diameters were measured.
# [3] = tested on: western flower thrips, Frankliniella occidentalis; test: western flower thrips dose-mortality on miniature rose foliage; type: in vivo
# Experimental: Dose-mortality response of CNMA formula against western flower thrips, Frankliniella occidentalis, was evaluated. Three different dose levels of the CNMA formulation were tested in comparison with a water only control. Tests were conducted using 500 ml ventilated paper cartons as experimental areas containing miniature rose foliage with approximately 30 adult F. occidentalis in each. An F. occidentalis colony (U.C. Davis, Department of Entomology) maintained on chrysanthemums and miniature rose was the source of thrips for the study. Three active ingredient dose levels (0.1, 0.3, and 1.0%) were sprayed onto the plants using a laboratory spray tower calibrated to spray the field equivalent of 113 L per acre at the desired dosage. Four replicates (4 observations per treatment) were compared for each dosage. For each test, treatment cartons received the treatment and were maintained at room temperature. […] Table 20 presents the mean mortality treatment data.
# [4] = tested on: powdery mildew; test: powdery mildew on Chardonnay grapes; type: in vivo
# Experimental: The effect of 0.3% and 0.6% cinnamic aldehyde on pacific mites on grapevine leaves was examined cinnamic aldehyde was diluted to 0.3% and 0.6% in water. Each formulation was sprayed onto a 1 acre block of Chardonnay wine grapes with a tractor-drawn 500 gal. hydraulic sprayer at 150 psi at a rate of 150 gal./acre. As a control, a 10-acre block of Chardonnay wine grapes was treated the same day as the test formulations with the conventional treatment (Omite) per label directions. The number of mites was counted the day prior to spraying and 4 days after spraying. […] In fact, both concentrations reduced the number of mites to a larger extent than the positive control, conventional treatment, Omite. The 0.6% rate nearly eliminated live mites on grapevines. […] The 0.6% was slightly beter than the 0.3 % cinnamic aldehyde with respect to powdery mildew control.
# (§1) The effect of 0.4% cinnamic aldehyde on powdery mildew and pacific mites on grapes was examined. Cinnamic aldehyde was diluted to 0.4% in water and sprayed onto a 1.8 acre test plot of Chardonnay grapevines with a tractor drawn, PTO powered sprayer, spraying at approximately 100 psi at a rate of 150 gal./acre. A 3 acre untreated plot served as a negative control. Additional controls included treatment of a 3.8 acre plot with stylet oil and a plot treated with a mix of Rubigan, Omite, and stylet oil, which cost appriximately $60.00/acre. Spray cards were placed randomly through the test block. Ten fruit clusters, which were generally completely covered with powdery mildew, in each of the four fields were flagged. […] Therefore, cinnamic aldehyde was effective at controlling both powdery mildew and pacific mites on grapes.
# [5] = tested on: pacific mites; test: pacific mites on Chardonnay grapes, 0.4% spray; type: in vivo
# Experimental: as §1
# [6] = CNMA 0.4% in water, 150 gal./acre, controls stylet oil, chemical mix
# [7] = baseline, CNMA 0.4% plot, stylet oil plot, chemical mix plot
smiles,measurement,setting,value
O=C/C=C/c1ccccc1 [cinnamic aldehyde],effect on mortality,[1]; 0.1 ppm in vehicle,no effect on mortality
same,effect on mortality,[1]; 1 ppm in vehicle,no effect on mortality
same,nematodes dead,"[1]; 10 ppm in vehicle, 24 hours",0%
same,nematodes dead,"[1]; 10 ppm in vehicle, 48 hours",15%
same,nematodes dead,"[1]; 10 ppm in vehicle, 72 hours",17.5%
same,nematodes dead,"[1]; 10 ppm in vehicle, 96 hours",22.5%
same,nematodes dead,"[1]; 10 ppm in vehicle, 108 hours",27.5%
same,nematodes dead,"[1]; 10 ppm in vehicle, 132 hours",52.5%
same,nematodes dead,"[1]; 10 ppm in vehicle, 156 hours",52.5%
same,nematodes dead,"[1]; greater than 100 ppm in vehicle (2% Tween 80, 6% NaHCO3), 24 hours",100%
same,Colony diameter (cm),[2]; 10 ppm CNMA (with saponin: 0.86 ml Yucca extract 10° BRIX),4.36 cm
same,Colony diameter (cm),"[2]; 10 ppm CNMA (with saponin: 0.86 ml Yucca extract 10° BRIX), listed as CNMA",4.363 cm
same,Colony diameter (cm),[2]; 100 ppm CNMA (with saponin: 0.86 ml),4.238 cm
same,Colony diameter (cm),"[2]; 100 ppm CNMA (with saponin: 0.86 ml), listed as PGXL CNMA",4.24 cm
same,Colony diameter (cm),"[2]; 2,500 ppm CNMA (with saponin: 0.86 ml)",3.513 cm
same,Colony diameter (cm),"[2]; 2,500 ppm CNMA (with saponin: 0.86 ml), listed as PGXL CNMA",3.51 cm
same,Colony diameter (cm),"[2]; 5,000 ppm CNMA (with saponin: 0.86 ml)",2.908 cm
same,Colony diameter (cm),"[2]; 5,000 ppm CNMA (with saponin: 0.86 ml), listed as PGXL CNMA",2.91 cm
same,Colony diameter (cm),"[2]; 12,500 ppm CNMA (with saponin: 0.86 ml)",0.000 cm
same,Colony diameter (cm),"[2]; 12,500 ppm CNMA (with saponin: 0.86 ml), listed as PGXL CNMA",0 cm
same,Colony diameter (cm),"[2]; 25,000 ppm CNMA (with saponin: 0.86 ml)",0.000 cm
same,Colony diameter (cm),"[2]; 25,000 ppm CNMA (with saponin: 0.86 ml), listed as PGXL CNMA",0 cm
same,Mean Thrip Mortality,"[3]; 0.1% CNMA (C), sampling time 1615",0.13
same,Mean Thrip Mortality,"[3]; 0.1% CNMA (C), sampling time 1645",0.17
same,Mean Thrip Mortality,"[3]; 0.1% CNMA (C), sampling time 1715",0.17
same,Mean Thrip Mortality,"[3]; 0.1% CNMA (C), sampling time 1845",0.19
same,Mean Thrip Mortality,"[3]; 0.1% CNMA (C), sampling time 2215",0.25
same,Mean Thrip Mortality,"[3]; 0.3% CNMA (B), sampling time 1615",0.26
same,Mean Thrip Mortality,"[3]; 0.3% CNMA (B), sampling time 1645",0.28
same,Mean Thrip Mortality,"[3]; 0.3% CNMA (B), sampling time 1715",0.28
same,Mean Thrip Mortality,"[3]; 0.3% CNMA (B), sampling time 1845",0.37
same,Mean Thrip Mortality,"[3]; 0.3% CNMA (B), sampling time 2215",0.40
same,Mean Thrip Mortality,"[3]; 1.0% CNMA (A), sampling time 1615",0.79
same,Mean Thrip Mortality,"[3]; 1.0% CNMA (A), sampling time 1645",0.82
same,Mean Thrip Mortality,"[3]; 1.0% CNMA (A), sampling time 1715",0.78
same,Mean Thrip Mortality,"[3]; 1.0% CNMA (A), sampling time 1845",0.84
same,Mean Thrip Mortality,"[3]; 1.0% CNMA (A), sampling time 2215",0.84
same,% INHIBITION (PM),[4]; [6],88%
same,PM POST-SPRAY,[4]; [6],10
same,PM PRE-SPRAY,[4]; [7],84
same,incidence of powdery mildew (not quantitated),"[4]; both treatments, 0.3% and 0.6% in water, Chardonnay",markedly reduced
same,% INHIBITION (MITES),[5]; [6],96%
same,MITES POST-SPRAY,[5]; [6],1.6
same,MITES PRE-SPRAY,[5]; [7],36

# From patent US20030005484A1, “Microbiocidal and pesticidal aromatic aldehydes” (ProGuard, Inc., priority 1994, published 2003)
